Results taken from patent US20180273970A1, “PLASMID, TRANSFORMED PLANT CELL AND TRANSGENIC PLANT COMPRISING THE SAME, AND METHODS FOR PREPARING A TRANSGENIC PLANT AND FOR INCREASING YIELD OF A PLANT UNDER ABIOTIC STRESSES” (Academia Sinica, priority 2014, published 2018).

Columns and labels:
Assay type in all cases: cell-based
[1] = tested on: SnRK1A-GFP; test: Cellular localization of SnRK1A-GFP in transfected barley aleurones (confocal microscopy); details: 48 h; for % of total cells with SnRK1A-GFP in location [drawing 1] (nucleus) / % of total cells with SnRK1A-GFP in location [drawing 2] (cytoplasm) / Number of cells with SnRK1A-GFP in location [drawing 1] (nucleus) / Number of cells with SnRK1A-GFP in location [drawing 2] (cytoplasm): +ABA
Method: (§1) FIG. 10. ABA restricts SKINs, SnRK1A and MYBS1 in the cytoplasm under sugar starvation. Barley aleurones were co-transfected with indicated plasmid constructs and incubated in +S or −S medium with ABA (+ABA) or without ABA (−ABA) for 48 h. Thirty optical sections of 0.9-1.1 μm thickness were prepared for each cell and only five regularly spaced sections (sections 3, 9, 15, 21 and 27) are shown here. C and N indicate higher GFP signals, and c and n indicate lower GFP signals in the cytoplasm and nucleus, respectively. For more section images of each cell, see also FIG. 22 online. (A) Barley aleurones were transfected with Ubi:SKIN1-GFP, Ubi:SKIN2-GFP, Ubi:SnRK1A-GFP or Ubi:MYBS1-GFP alone. (B) Barley aleurones were transfected with Ubi.MYBS1-GFP alone (panel 1) or co-transfected with Ubi.MYBS1-GFP and Ubi:SnRK1A (panel 2), or with Ubi.MYBS1-GFP and Ubi:SnRK1A(Ri) (panel 3). (C) Barley aleurones were co-transfected with Ubi:SnRK1A-GFP and Ubi:SKIN(Ri). (D) Wild type rice (WT) or transgenic rice overexpression Ubi:SKIN(Ri) were transfected with Ubi:SnRK1A-GFP (panels 1-3) or Ubi.MYBS1-GFP (panels 4-6).
Detection of cellular localization of SKIN-GFP, SnRK1A-GFP and MYBS1-GFP fusion proteins were performed as described (Hong et al., 2012). Embryoless barley and rice seeds were sterilized with 1% NaOCl for 30 mins, and incubated in a buffer containing 20 mM CaCl2 and 20 mM sodium succinate, pH 5.0, for 4 days. Aleurone layers were isolated by scratching away starch in the endosperm with a razor blade. Four aleurone layers were arranged in a 10-cm dish for bombardment. Aleurone layers expressing GFP were examined with a Ziess confocal microscope (LSM510META) using a 488-nm laser line for excitation and a 515- to 560-nm long pass filter for emission.

[2] = tested on: SKIN-GFP; test: Cellular localization of SKIN-GFP in transfected barley aleurones (confocal microscopy); details: −S medium containing ABA, 48 h
Method: as §1
(§2) Detection of cellular localization of SKIN-GFP, SnRK1A-GFP and MYBS1-GFP fusion proteins were performed as described (Hong et al., 2012). […]

[3] = tested on: MYBS1-GFP; test: Cellular localization of MYBS1-GFP in transfected barley aleurones (confocal microscopy); details: −S medium containing ABA, 48 h
Method: as §1, §2

[4] = tested on: αAmy3 SRC promoter; test: Rice embryo transient expression assay, SRC-35Smp:Luc reporter (luciferase); details: rice embryos, 1 μM ABA or 50 mM sorbitol, 24 h
Method: FIG. 3. The highly conserved GKSKSF domain (KSD) is essential for SKINs to antagonize the function of SnRK1A. Rice embryos were transfected with plasmids, incubated in medium with 100 mM glucose (+S) or without glucose (−S) for 24 h, and assayed for luciferase activity. The luciferase activity in rice embryos bombarded with the SRC-35S mp-Luc construct only and in +S medium was set to 1×, and other values were calculated relative to this value. Error bars indicate the SE for three replicate experiments. (A) Plasmid constructs. (B) Rice embryos were co-transfected with effector Ubi:SnRK1A, Ubi:SKIN1 or Ubi:SKIN(Ri) alone and reporter SRC-35Smp:Luc, or co-transfected with effectors Ubi:SnRK1A and Ubi:SKIN or Ubi:SKIN(Ri) and reporter SRC-35Smp:Luc. (C) Total cellular proteins were extracted from rice embryos transfected with Ubi:SnRK1A, Ubi:SKIN or Ubi:SnRK1A and Ubi:SKIN by particle bombardment and subjected to Western blot analysis using antibodies against SnRK1A and the HA tag fused to at the N-terminus of SKINs. (D) Rice embryos were co-transfected with effectors Ubi:SnRK1A and Ubi:SKIN1 (wild-type or truncated) and reporter SRC-35Smp:Luc. (E) Rice embryos were co-transfected with effectors Ubi:SnRK1A and Ubi:SKIN (wild-type, KSD deleted, or KSD replaced with 6 Ala) and reporter SRC-35Smp:Luc.
(§3) FIG. 21. ABA and sorbitol suppress the function of SnRK1A in activation of αAmy3 SRC promoter. Rice embryos and barley aleurones were transfected with reporter SRC-35Smp:Luc with or without effectors, incubated with or without ABA for 24 h, and assayed for luciferase activity. The luciferase activity in embryos or aleurones bombarded with the SRC-35S mp-Luc construct only and in +S medium was set to 1×, and other values were calculated relative to this value. Error bars indicate the SE for three replicate experiments. (A) Plasmid constructs. (B) Barley aleurones were transfected with effector Ubi:SnRK1A, Ubi:SKIN1 or Ubi:SKIN(Ri) alone and reporter SRC-35Smp:Luc, or co-transfected with effectors Ubi:SnRK1A and Ubi:SKIN or Ubi:SKIN(Ri) and reporter SRC-35Smp:Luc. (C) Rice embryos (upper panel) were transfected with or without Ubi:SnRK1A and incubated with or without 1 μM ABA or 50 mM sorbitol, and barley aleurones (lower panel) were transfected with or without Ubi:SnRK1A and incubated with 5 μM ABA or 400 mM sorbitol.
Rice embryos were prepared for particle bombardment as described (Chen et al., 2006). The rice embryos were bombarded with reporter, effectors and internal control at a ratio of 4:2:1 for single effector or 4:2:2:1 for two effectors. The internal control (Ubi::GUS) was used to normalize the reporter enzyme activity because different transformation efficiency might occur in each independent experiment. Bombarded rice embryos were divided into two halves, with half being incubated in MS liquid medium containing 100 mM Glc, and the other half grown in MS liquid containing 100 mM mannitol, for 24 h. Total proteins were extracted for embryos with a cell lysis buffer [0.1 M K-phosphate, pH 7.8, 1 mM EDTA, 10% glycerol, 1% triton X-100, and 7 mM β-mercaptoethanol]. GUS assay buffer [0.1 M Na-phosphate, 20 mM EDTA, 0.2% sarcosine, 0.2% Triton X-100, and 20 mM β-mercaptoethanol] was used for GUS activity assay. The activity assay of GUS and luciferase were described elsewhere (Lu et al., 1998). All bombardments were repeated at least three times.

[5] = tested on: αAmy3 SRC promoter; test: Barley aleurone transient expression assay, SRC-35Smp:Luc reporter (luciferase); details: barley aleurones, 5 μM ABA or 400 mM sorbitol, 24 h
Method: as §3
The barley aleurone/endosperm transient expression assays were performed as described (Hong et al., 2012). Each independent experiment consisted of three replicates, with six endosperms for each treatment, and was repeated three times with similar results. Luciferase and GUS activity assays were performed as described (Hong et al., 2012). […]

CC1=CC(=O)CC(C)(C)[C@@]1(O)/C=C/C(C)=C\C(=O)O [ABA, abscisic acid]
% of total cells with SnRK1A-GFP in location [drawing 1] (nucleus) ([1]; +S medium): 15.8%
% of total cells with SnRK1A-GFP in location [drawing 2] (cytoplasm) ([1]; +S medium): 84.2%
Number of cells with SnRK1A-GFP in location [drawing 1] (nucleus) ([1]; +S medium): 6
Number of cells with SnRK1A-GFP in location [drawing 2] (cytoplasm) ([1]; +S medium): 32
Localization of SnRK1A-GFP ([1]; −S medium containing ABA): exclusively localized in the cytoplasm
% of total cells with SnRK1A-GFP in location [drawing 1] (nucleus) ([1]; −S medium): 8.0%
% of total cells with SnRK1A-GFP in location [drawing 2] (cytoplasm) ([1]; −S medium): 92.0%
Number of cells with SnRK1A-GFP in location [drawing 1] (nucleus) ([1]; −S medium): 7
Number of cells with SnRK1A-GFP in location [drawing 2] (cytoplasm) ([1]; −S medium): 81
Localization of SKIN-GFP [2]: exclusively localized in the cytoplasm
Localization of MYBS1-GFP [3]: exclusively localized in the cytoplasm
Effect on αAmy3 SRC promoter (luciferase activity), alone and SnRK1A-activated [4]: suppressed
Effect on αAmy3 SRC promoter (luciferase activity), alone and SnRK1A-activated [5]: suppressed
